One assay has as its system HCMV wild-type. Put plainly: HCMV yield assay. The class given is cell-based, human cytomegalovirus. Conditions: for IC50: Human betaherpesvirus 5, Fibroblast, read-out: IC50 Ug/ml HCMV. In outline:
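HCMV wild-type infected human foreskin fibroblast monolayers at MOI typically 0.2 with varying compound concentrations; virus yield harvested at 3 days post-infection and titered on fibroblasts without inhibitor, plaques counted at 2 weeks. IC50 or IC90 = compound amount reducing yield titer by 50% or 90%.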

Another assay deals with HSV-1. Put plainly: HSV Antiviral (ELISA) Assay. The class given is cell-based, herpes simplex virus type 1. Conditions: for IC50: Human alphaherpesvirus 1, Vero, read-out: IC50 Ug/ml HSV. The gist of the method: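 Vero cells in DMEM/2% FBS pretreated with compound 30 min before HSV-1 infection (MOI 0.006), then ~24 h at 37 °C. Viral gD detected by ELISA with β-galactosidase secondary and 4-methylumbelliferyl-galactoside (ex 365/em 450 nm); IC50 from fluorescence versus untreated infected cells.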
On the technique in general: ELISA stands for enzyme-linked immunosorbent assay.

Another assay relates to VZV strain Ellen. Kind of assay: VZV Antiviral (ELISA) Assay. The conditions noted are these: human foreskin fibroblast cells; for IC50 / inhibition at 10 µg/mL: Human alphaherpesvirus 3, Fibroblast; for IC50: read-out: IC50 Ug/ml VZV; for inhibition at 10 µg/mL: read-out: % inhibition 10 ug/ml VZV, 10 ug/ml. The assay is classed as cell-based, varicella-zoster virus. In outline: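 Cell-based VZV (Ellen) spread assay in HFF, 3-day compound exposure in 2% FBS medium. Viral antigen quantified by fluorescent β-galactosidase ELISA; IC50 from inhibition of signal.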

We go through 24 compounds from patent US6335350B1, “Acetamide and substituted acetamide-containing thiourea inhibitors of herpes viruses” (American Home Products Corporation, priority 1998, dated 2002).

Molecules are shown by their SMILES. Converted amounts (≈) assume the structure as drawn. Read-outs that look alike come from different tables or passages of the source.

Turning to `CC(=O)Nc1ccc(NC(=S)Nc2ccc(NC(=O)CN3CCOCC3)c(Cl)c2)cc1` [Example 366, N-{4-[3-(4-Acetylamino-phenyl)-thioureido]-2-chloro-phenyl}-2-morpholin-4-yl-acetamide], the IC50 is greater than 10 µg/mL in the assay with HCMV wild-type (human foreskin fibroblasts); greater than 10 µg/mL in the assay on HSV-1 (Vero cells, HSV-1); greater than 10 µg/mL in the assay with VZV strain Ellen. Moreover, in the assay with VZV strain Ellen, the inhibition at 10 µg/mL turned out to be 16%.
In the case of `CC(=O)Nc1ccc(NC(=S)Nc2ccc(NS(C)(=O)=O)c(Cl)c2)cc1` [Example 369, N-{4-[3-(3-Chloro-4-methanesulfonylamino-phenyl)-thioureido]-phenyl}-acetamide], the IC50 with HCMV wild-type (human foreskin fibroblasts) was greater than 10 µg/mL; in the assay with HSV-1 (Vero cells, HSV-1), greater than 10 µg/mL; with VZV strain Ellen, greater than 10 µg/mL. In addition, the inhibition at 10 µg/mL in the assay with VZV strain Ellen came to 0%.
As to `CC(=O)Nc1ccc(NC(=S)Nc2ccc(NC(=O)CSCCN(C)C)c(Cl)c2)cc1` [Example 372, N-{4-[3-(4-Acetylamino-phenyl)-thioureido]-2-chloro-phenyl}-2-(2-dimethylamino-ethylsulfanyl)-acetamide], the IC50 in the assay with HCMV wild-type (human foreskin fibroblasts) is greater than 10 µg/mL; in the assay with HSV-1 (Vero cells, HSV-1), greater than 10 µg/mL; in the assay with VZV strain Ellen, greater than 10 µg/mL. Also, the inhibition at 10 µg/mL in the assay with VZV strain Ellen amounted to 53%.
As to `C=Cc1ccc(NC(=S)Nc2ccc(NC(C)=O)cc2)cc1Cl` [Example 377, N-{4-[3-(3-Chloro-4-vinyl-phenyl)-thioureido]-phenyl}-acetamide], the IC50 was 0.8 µg/mL (≈ 2.31 µM) in the assay on HCMV wild-type (human foreskin fibroblasts); 3 µg/mL (≈ 8.67 µM) in the assay on HSV-1 (Vero cells, HSV-1); greater than 10 µg/mL with VZV strain Ellen. For the same compound, the inhibition at 10 µg/mL in the assay with VZV strain Ellen came to 28%.
The like results for `COc1cc(OC)c(NC(=S)Nc2ccc(NC(C)=O)cc2C#N)cc1Cl` [Example 383, N-{4-[3-(5-Chloro-2,4-dimethoxy-phenyl)-thioureido]-3-cyano-phenyl}-acetamide] were, in that order, greater than 10 µg/mL, greater than 10 µg/mL, greater than 10 µg/mL and 38%.
For the compound `CCN(CC)CC(=O)Nc1ccc(NC(=S)Nc2ccc(NC(C)=O)cc2)cc1Cl` [Example 412, N-{4-[3-(4-Acetylamino-phenyl)-thioureido]-2-chloro-phenyl}-2-diethyl-amino-acetamide], in the assay on HCMV wild-type (human foreskin fibroblasts), the “IC50 Ug/ml HCMV” value is reported as greater than 10 Ug/ml. The “IC50 Ug/ml HSV” value in the assay on HSV-1 (Vero cells, HSV-1) was greater than 10 Ug/ml. In the assay on VZV strain Ellen (10 ug/ml), the “% inhibition 10 ug/ml VZV” value was 29%. In the assay with VZV strain Ellen, the “IC50 Ug/ml VZV” value is greater than 10 Ug/ml.
With `CC(=O)Nc1ccc(NC(=S)Nc2ccccc2)cc1` [Example 814, N-[4-(3-Phenyl-thioureido)-phenyl]-acetamide], the IC50 in the assay on HCMV wild-type, in the assay with HSV-1 and with VZV strain Ellen was greater than 10 µg/mL each time. The inhibition at 10 µg/mL in the assay with VZV strain Ellen was 15%.
As for `CC(=O)Nc1ccc(NC(=S)Nc2cccc(Cl)c2)cc1` [Example 816, N-{4-[3-(3-Chloro-phenyl)-thioureido]-phenyl}-acetamide], the IC50 in the assay on HCMV wild-type (human foreskin fibroblasts) is 25 µg/mL (≈ 78.2 µM); in the assay with HSV-1 (Vero cells, HSV-1), 20 µg/mL (≈ 62.5 µM); in the assay on VZV strain Ellen, greater than 10 µg/mL. In addition, in the assay on VZV strain Ellen, the inhibition at 10 µg/mL was determined as 30%.
With `CCCCCC(=O)Nc1ccc(NC(=S)Nc2cc(Br)c(OC)cc2OC)cc1` [Example 826, Hexanoic acid {4-[3-(5-bromo-2,4-dimethoxy-phenyl)-thioureido]-phenyl}-amide], the IC50 is greater than 10 µg/mL in the assay with HCMV wild-type (human foreskin fibroblasts); 3 µg/mL (≈ 6.24 µM) in the assay with HSV-1 (Vero cells, HSV-1); greater than 10 µg/mL in the assay on VZV strain Ellen. Besides, in the assay on VZV strain Ellen, the inhibition at 10 µg/mL was found to be 30%.
With `CCOc1cc(OC)c(Cl)cc1NC(=S)Nc1ccc(NC(C)=O)cc1` [Example 831, N-{4-[3-(5-Chloro-2-ethoxy-4-methoxy-phenyl)-thioureido]-phenyl}-acetamide], the IC50 was greater than 10 µg/mL in the assay with HCMV wild-type (human foreskin fibroblasts); 3 µg/mL (≈ 7.62 µM) in the assay with HSV-1 (Vero cells, HSV-1); greater than 10 µg/mL with VZV strain Ellen. In addition, in the assay with VZV strain Ellen, the inhibition at 10 µg/mL turned out to be 11%.
`CCOc1cc(OC)c(NC(=S)Nc2ccc(NC(C)=O)cc2)cc1Cl` [Example 832, N-{4-[3-(5-Chloro-4-ethoxy-2-methoxy-phenyl)-thioureido]-phenyl}-acetamide]: the IC50 in the assay with HCMV wild-type (human foreskin fibroblasts) is greater than 50 µg/mL; in the assay on HSV-1 (Vero cells, HSV-1) it was 9 µg/mL (≈ 22.8 µM); with VZV strain Ellen it was greater than 10 µg/mL. In the assay on VZV strain Ellen, the inhibition at 10 µg/mL was determined as 15%.
The like results for `CCCCOc1cc(OC)c(Cl)cc1NC(=S)Nc1ccc(NC(C)=O)cc1` [Example 833, N-{4-[3-(2-Butoxy-5-chloro-4-methoxy-phenyl)-thioureido]-phenyl}-acetamide] were, in that order, greater than 10 µg/mL, 7 µg/mL (≈ 16.6 µM), greater than 10 µg/mL and 54%.
For `CCCCOc1cc(OC)c(NC(=S)Nc2ccc(NC(C)=O)cc2)cc1Cl` [Example 834, N-{4-[3-(4-Butoxy-5-chloro-2-methoxy-phenyl)-thioureido]-phenyl}-acetamide] the same measures were greater than 10 µg/mL, 10 µg/mL (≈ 23.7 µM), 15 µg/mL (≈ 35.5 µM) and 93%.
Regarding `COc1cc(OCc2ccccc2)c(NC(=S)Nc2ccc(NC(C)=O)cc2)cc1Cl` [Example 835, N-{4-[3-(2-Benzyloxy-5-chloro-4-methoxy-phenyl)-thioureido]-phenyl}-acetamide], the IC50 in the assay with HCMV wild-type (human foreskin fibroblasts) is greater than 10 µg/mL; with HSV-1 (Vero cells, HSV-1) it was 8 µg/mL (≈ 17.5 µM); in the assay with VZV strain Ellen it was greater than 10 µg/mL. In the assay with VZV strain Ellen, the inhibition at 10 µg/mL worked out at 38%.
Turning to `COc1cc(OCc2ccccc2)c(Cl)cc1NC(=S)Nc1ccc(NC(C)=O)cc1` [Example 836, N-{4-[3-(4-Benzyloxy-5-chloro-2-methoxy-phenyl)-thioureido]-phenyl}-acetamide], the IC50 in the assay with HCMV wild-type (human foreskin fibroblasts) is greater than 10 µg/mL; in the assay with HSV-1 (Vero cells, HSV-1), 8 µg/mL (≈ 17.5 µM); in the assay with VZV strain Ellen it was 2.5 µg/mL (≈ 5.48 µM). In addition, in the assay with VZV strain Ellen, the inhibition at 10 µg/mL turned out to be 92%.
`COc1cc(OCC(N)=O)c(Cl)cc1NC(=S)Nc1ccc(NC(C)=O)cc1` [Example 838, 2-{4-[3-(4-Acetylamino-phenyl)-thioureido]-2-chloro-5-methoxy-phenoxy}-acetamide]: the IC50 is greater than 10 µg/mL with HCMV wild-type (human foreskin fibroblasts); greater than 50 µg/mL in the assay with HSV-1 (Vero cells, HSV-1); greater than 10 µg/mL in the assay with VZV strain Ellen. Further, the inhibition at 10 µg/mL in the assay on VZV strain Ellen came out at 20%.
Take `COc1cc(O)c(NC(=S)Nc2ccc(NC(C)=O)cc2)cc1Cl` [Example 839, N-{4-[3-(5-Chloro-2-hydroxy-4-methoxy-phenyl)-thioureido]-phenyl}-acetamide]: the IC50 in the assay on HCMV wild-type (human foreskin fibroblasts) is 15 µg/mL (≈ 41 µM); in the assay on HSV-1 (Vero cells, HSV-1) it was 10 µg/mL (≈ 27.3 µM); with VZV strain Ellen, greater than 10 µg/mL. The inhibition at 10 µg/mL with VZV strain Ellen stood at 17%.
For the compound `CSc1ccc(NC(=S)Nc2ccc(NC(C)=O)cc2)cc1Cl` [Example 840, N-{4-[3-(3-Chloro-4-methylsulfanyl-phenyl)-thioureido]-phenyl}-acetamide], the IC50 is 0.4 µg/mL (≈ 1.09 µM) in the assay with HCMV wild-type (human foreskin fibroblasts); 1.5 µg/mL (≈ 4.1 µM) in the assay with HSV-1 (Vero cells, HSV-1); greater than 10 µg/mL in the assay on VZV strain Ellen. In the assay on VZV strain Ellen, the inhibition at 10 µg/mL stood at 0%.
The like results for `CC(=O)Nc1ccc(NC(=S)Nc2ccc(N(C)C3CCN(C)CC3)c(Cl)c2)cc1` [Example 841, N-[4-(3-{3-Chloro-4-[methyl-(1-methyl-piperidin-4-yl)-amino]-phenyl}-thioureido)-phenyl]-acetamide] were, in that order, 0.9 µg/mL (≈ 2.02 µM), greater than 50 µg/mL, greater than 10 µg/mL and 30%.
The like results for `CC(=O)Nc1ccc(NC(=S)Nc2ccc(N(C)c3ccccc3)c(Cl)c2)cc1` [Example 842, N-(4-{3-[3-Chloro-4-(methyl-phenyl-amino)-phenyl]-thioureido}-phenyl)-acetamide] were, in that order, 1.5 µg/mL (≈ 3.53 µM), greater than 10 µg/mL, greater than 10 µg/mL and 33%.
The like results for `CC(=O)Nc1ccc(NC(=S)Nc2ccc(N(C)C3CCN(Cc4ccccc4)C3)c(Cl)c2)cc1` (stereo not drawn) [Example 843, N-[4-(3-{4-[(1-Benzyl-pyrrolidin-3-yl)-methyl-amino]-3-chloro-phenyl}-thioureido)-phenyl]-acetamide] were, in that order, 0.7 µg/mL (≈ 1.38 µM), 5 µg/mL (≈ 9.84 µM), greater than 10 µg/mL and 50%.
In the case of `CC(=O)Nc1ccc(NC(=S)Nc2ccc(N(C)C3CCCC3)c(Cl)c2)cc1` [Example 844, N-(4-{3-[3-Chloro-4-(cyclopentyl-methyl-amino)-phenyl]-thioureido}-phenyl)-acetamide], the IC50 in the assay on HCMV wild-type (human foreskin fibroblasts) is 0.8 µg/mL (≈ 1.92 µM); in the assay on HSV-1 (Vero cells, HSV-1), 15 µg/mL (≈ 36 µM); in the assay with VZV strain Ellen, greater than 10 µg/mL. Moreover, the inhibition at 10 µg/mL with VZV strain Ellen stood at 32%.
The like results for `CC(=O)Nc1ccc(NC(=S)Nc2ccc(N(C)C3CCN(C)C3)c(Cl)c2)cc1` (stereo not drawn) [Example 845, N-[4-(3-{3-Chloro-4-[methyl-(1-methyl-pyrrolidin-3-yl)-amino]-phenyl}-thioureido)-phenyl]-acetamide] were, in that order, 1 µg/mL (≈ 2.31 µM), 20 µg/mL (≈ 46.3 µM), greater than 10 µg/mL and 25%.
Turning to `CC(=O)Nc1ccc(NC(=S)Nc2ccc(C(C)O)c(Cl)c2)cc1` (stereo not drawn) [Example 862, N-(4-{3-[3-Chloro-4-(1-hydroxy-ethyl)-phenyl]-thioureido}-phenyl)-acetamide], the IC50 in the assay on HCMV wild-type (human foreskin fibroblasts) is 2 µg/mL (≈ 5.5 µM); in the assay with HSV-1 (Vero cells, HSV-1), greater than 10 µg/mL; in the assay on VZV strain Ellen it was greater than 10 µg/mL. The inhibition at 10 µg/mL in the assay on VZV strain Ellen was 10%.
